From patent publication US20140087007A1, “BOWEL CLEANSING PREPARATIONS” (Braintree Laboratories, Inc., priority 2012, published 2014) come the findings set out here.

This experiment has as its system colon (colonic purgation). Nature of the experiment: Stool output of normal volunteers after one amount of laxative, bowel movements collected 24 hours. In kind it is in vivo, human. The following applies: 20 mg, 24 hours collection. As for the experimental part: The sulfate salt solutions such as those described herein were investigated for their efficacy as colon debulking agents because bisacodyl has been associated with reports of abdominal cramping. Four different solutions were prepared with varying amounts of sodium, magnesium, and potassium sulfate salts and each containing a total sulfate amount of 125 mM.
These included bisacodyl (20 mg), a PEG and balanced electrolyte isotonic preparation (NuLYTELY®, (2 L or 4 L) or HalfLytely®+Bisacodyl Bowel Prep Kit, (2 L PEG and electrolytes and 10 mg bisacodyl). Bowel movements and urine were collected for 24 hours. The stool output of the subjects were compared and evaluated for movement of electrolytes between the solution and the subject.
The results measured were mean stool volume output and are shown below in Table 2 using non-sulfate laxatives and in Table 3 using sulfate laxatives.

On to `CC(=O)Oc1ccc(C(c2ccc(OC(C)=O)cc2)c2ccccn2)cc1` [Bisacodyl, bisacodyl], for which the “% Solids (stool)” value is reported as 50.4% and the “Output (mean stool volume output)” value worked out at 757 g.
